Measurements taken from paper PMC4904262 (ACS Medicinal Chemistry Letters, 2016).
Like-named read-outs stand apart in the source and are kept apart here. One block for each compound: values may come before it.

Experiments:
WNT signaling [1] = settings: read-out: 7dF3 IC50; Figure 1; cited from earlier work
CDK19 = settings: read-out: CDK19 IC50; Figure 1; cited from earlier work
[2] = mouse
aldehyde oxidase [3] = molecular target: T1, aldehyde oxidase (Homo sapiens, UniProt Q06278); settings: for % of parent compd remaining after 45 min: human, cytosol, 0.75 h, 1 µM
T1 sequence (Q06278 whole entry): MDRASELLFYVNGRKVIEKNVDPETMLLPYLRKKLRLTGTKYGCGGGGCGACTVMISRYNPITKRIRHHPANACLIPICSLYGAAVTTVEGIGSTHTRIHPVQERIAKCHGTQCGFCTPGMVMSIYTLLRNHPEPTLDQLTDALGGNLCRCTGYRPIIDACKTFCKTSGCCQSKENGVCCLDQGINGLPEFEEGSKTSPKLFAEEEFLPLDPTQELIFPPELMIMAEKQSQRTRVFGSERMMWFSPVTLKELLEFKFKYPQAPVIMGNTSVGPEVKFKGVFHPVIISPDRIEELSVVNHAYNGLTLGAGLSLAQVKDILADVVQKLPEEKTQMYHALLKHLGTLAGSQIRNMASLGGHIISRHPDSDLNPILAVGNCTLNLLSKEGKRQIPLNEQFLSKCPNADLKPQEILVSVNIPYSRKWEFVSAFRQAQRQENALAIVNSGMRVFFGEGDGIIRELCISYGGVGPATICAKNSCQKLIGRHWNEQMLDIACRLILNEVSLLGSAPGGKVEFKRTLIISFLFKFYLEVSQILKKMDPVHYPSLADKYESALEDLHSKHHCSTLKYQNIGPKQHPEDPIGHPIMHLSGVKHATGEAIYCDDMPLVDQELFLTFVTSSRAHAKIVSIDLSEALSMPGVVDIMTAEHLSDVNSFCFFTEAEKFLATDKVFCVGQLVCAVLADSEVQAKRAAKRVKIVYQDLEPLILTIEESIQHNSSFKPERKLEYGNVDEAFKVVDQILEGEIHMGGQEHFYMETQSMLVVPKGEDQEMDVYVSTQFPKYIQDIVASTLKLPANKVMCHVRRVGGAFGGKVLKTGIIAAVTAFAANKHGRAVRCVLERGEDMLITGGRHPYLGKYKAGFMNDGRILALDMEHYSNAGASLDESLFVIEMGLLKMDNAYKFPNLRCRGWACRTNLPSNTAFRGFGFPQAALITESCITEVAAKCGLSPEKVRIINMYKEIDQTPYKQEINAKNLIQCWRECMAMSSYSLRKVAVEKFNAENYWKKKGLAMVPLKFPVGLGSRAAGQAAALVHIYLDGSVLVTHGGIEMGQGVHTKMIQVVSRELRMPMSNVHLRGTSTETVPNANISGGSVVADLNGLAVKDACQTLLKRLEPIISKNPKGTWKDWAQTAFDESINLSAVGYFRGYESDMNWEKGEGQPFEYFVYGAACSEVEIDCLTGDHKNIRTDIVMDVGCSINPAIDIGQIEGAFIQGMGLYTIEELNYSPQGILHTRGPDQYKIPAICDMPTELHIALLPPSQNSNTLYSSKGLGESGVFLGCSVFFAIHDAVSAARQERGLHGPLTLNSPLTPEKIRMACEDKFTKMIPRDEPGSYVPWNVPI

in vitro [4] = settings: mouse, microsomes
in vitro [5] = settings: rat, microsomes
in vitro [6] = settings: human, microsomes
in vitro [7] = settings: human, Caco-2
aldehyde oxidase [8] = molecular target: T1, aldehyde oxidase; experiment: in vitro; settings: cytosol
[9] = human
WNT signaling [10] = settings: for fold less active in the cell-based assay: relative to 4; for drop off in the cell-based assay: cell-based versus CDK8 affinity
WNT signaling [11] = experiment: cells; settings: 7dF3, read-out: 7dF3 IC50
Caco-2 = settings: human
CDK8 = CDK8 (Homo sapiens, UniProt P49336); type: binding; settings: versus parent analogue
Sequence of CDK8 (P49336 whole entry): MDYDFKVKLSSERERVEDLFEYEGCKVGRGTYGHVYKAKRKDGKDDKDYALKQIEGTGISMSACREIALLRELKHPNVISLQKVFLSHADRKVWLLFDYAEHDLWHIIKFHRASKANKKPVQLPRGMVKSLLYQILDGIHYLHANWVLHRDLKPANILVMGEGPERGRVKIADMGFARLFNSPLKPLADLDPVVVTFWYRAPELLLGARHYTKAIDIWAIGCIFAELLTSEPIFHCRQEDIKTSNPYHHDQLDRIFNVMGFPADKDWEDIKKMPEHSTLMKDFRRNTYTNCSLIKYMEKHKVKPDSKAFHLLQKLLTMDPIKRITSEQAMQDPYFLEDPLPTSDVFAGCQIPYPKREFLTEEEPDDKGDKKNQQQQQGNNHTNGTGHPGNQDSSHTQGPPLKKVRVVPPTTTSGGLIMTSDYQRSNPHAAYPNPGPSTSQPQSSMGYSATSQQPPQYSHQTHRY
Sequence of CDK8 (P24863 whole entry, further chain): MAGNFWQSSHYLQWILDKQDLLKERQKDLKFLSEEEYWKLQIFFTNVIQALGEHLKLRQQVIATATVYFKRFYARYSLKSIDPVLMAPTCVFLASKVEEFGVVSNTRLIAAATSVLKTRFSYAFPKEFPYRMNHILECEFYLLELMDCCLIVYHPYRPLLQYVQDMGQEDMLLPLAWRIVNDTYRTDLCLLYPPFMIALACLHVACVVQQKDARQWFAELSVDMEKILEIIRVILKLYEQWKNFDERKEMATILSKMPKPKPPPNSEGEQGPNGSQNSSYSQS

Structure (SMILES): Cn1cc(-c2ccc(-c3cncc(Cl)c3N3CCC4(CCNC4=O)CC3)cc2)cn1 [Compound 1]
- IC50 (WNT signaling [1]): 5 ± 1 nM
- IC50 (CDK19): 6 ± 1 nM

Structure (SMILES): Cn1ncc2cc(-c3cnc(N)c(Cl)c3N3CCC4(CCNC4=O)CC3)ccc21 [Compound 2]
- IC50 (WNT signaling [1]): 11.8 ± 17.9 nM
- IC50 (CDK19): 2.6 ± 0.4 nM

- F ([2]; Balb/C, in vivo): 16%
- Vss ([2]; Balb/C, in vivo): 2.7 L/kg
- in vivo clearance [2]: exceeded liver blood flow
- AO substrate (Enzyme assay) (aldehyde oxidase [3]): Yes
- microsomal CLint at 1 µM (in vitro [4]): 76 µL/min/mg
- microsomal CLint at 1 µM (in vitro [5]): 142 µL/min/mg
- microsomal CLint at 1 µM (in vitro [6]): 15 µL/min/mg
- Papp A→B (in vitro [7]): 38.3 ×10⁻⁶ cm/s
- efflux ratio (in vitro [7]): 1.02
- CLint scaled at 1 µM (aldehyde oxidase [8]): 598 mL/min/kg
Structure (SMILES): CNC(=O)c1ccc2cncc(-c3ccc4c(c3)CS(=O)(=O)N4C)c2n1 [Compound 7]

- in vivo clearance [2]: exceeded liver blood flow
- Cl ([2]; in vivo): Not measurable
- F ([2]; in vivo): Not measurable
- Vd ([2]; in vivo): Not measurable
- % of parent compd remaining after 45 min (aldehyde oxidase [3]): 20%
- microsomal CLint at 1 µM (in vitro [4]): 23 µL/min/mg
- microsomal CLint at 1 µM (in vitro [5]): 21 µL/min/mg
- microsomal CLint (in vitro [6]): < 10 µL/min/mg
- Papp A→B (in vitro [7]): 5.94 ×10⁻⁶ cm/s
- efflux ratio (in vitro [7]): 7.26
Structure (SMILES): CNC(=O)c1ccc2cncc(-c3ccc4c(c3)CS(=O)(=O)N4)c2n1 [Compound 8]
- main metabolite [9]: oxidation to give the C5-OH compound 37 as the main metabolite

- Vss ([2]; Balb/C, in vivo): 5.8 L/kg
- in vivo clearance [2]: exceeded liver blood flow
- microsomal CLint at 1 µM (in vitro [4]): 15 µL/min/mg
- microsomal CLint at 1 µM (in vitro [5]): 525 µL/min/mg
- microsomal CLint at 1 µM (in vitro [6]): 36 µL/min/mg
Structure (SMILES): Cn1cc(-c2ccc(-c3cncc4ccc(C(=O)N5CCNCC5)nc34)cc2)cn1 [Compound 17]

Structure (SMILES): CC(=O)Nc1ccc2cncc(-c3ccc(-c4cnn(C)c4)cc3)c2n1 [Compound 18]
- fold less active in the cell-based assay (WNT signaling [10]): 10 fold
- microsomal CLint at 1 µM (in vitro [4]): 168 µL/min/mg
- microsomal CLint at 1 µM (in vitro [5]): 247 µL/min/mg
- microsomal CLint at 1 µM (in vitro [6]): 26 µL/min/mg

Structure (SMILES): Cn1cc(-c2ccc(-c3cncc4ccc(N5CCCC5=O)nc34)cc2)cn1 [Compound 19]
- fold less active in the cell-based assay (WNT signaling [10]): 10 fold
- microsomal CLint at 1 µM (in vitro [4]): 392 µL/min/mg
- microsomal CLint at 1 µM (in vitro [5]): 253 µL/min/mg
- microsomal CLint at 1 µM (in vitro [6]): 143 µL/min/mg
- CLint scaled at 1 µM (aldehyde oxidase [8]): 418 mL/min/kg

- % of parent compd remaining after 45 min (aldehyde oxidase [3]): 0%
- microsomal CLint at 1 µM (in vitro [4]): 200 µL/min/mg
- microsomal CLint at 1 µM (in vitro [5]): 796 µL/min/mg
- microsomal CLint at 1 µM (in vitro [6]): 48 µL/min/mg
- CLint scaled at 1 µM (aldehyde oxidase [8]): 367 mL/min/kg
Structure (SMILES): Cn1cc(-c2ccc(-c3cncc4ccc(-c5ncco5)nc34)cc2)cn1 [Compound 25]

- AO substrate (Enzyme assay) (aldehyde oxidase [3]): Yes
- microsomal CLint at 1 µM (in vitro [4]): 661 µL/min/mg
- microsomal CLint (in vitro [5]): > 1000 µL/min/mg
- microsomal CLint at 1 µM (in vitro [6]): 335 µL/min/mg
- CLint scaled at 1 µM (aldehyde oxidase [8]): > 1000 mL/min/kg
Structure (SMILES): Cn1cc(-c2ccc(-c3cncc4ccc(-c5nccn5C)nc34)cc2)cn1 [Compound 26]

Structure (SMILES): Cn1cc(-c2ccc(-c3cncc4ccc(N5CCCS5(=O)=O)cc34)cc2)cn1 [Compound 35]
- drop off in the cell-based assay (WNT signaling [10]): 7 fold
- microsomal CLint at 1 µM (in vitro [4]): 213 µL/min/mg
- microsomal CLint at 1 µM (in vitro [5]): 81 µL/min/mg
- microsomal CLint at 1 µM (in vitro [6]): 54 µL/min/mg

Structure (SMILES): Cn1cc(-c2ccc(-c3cncc4ccc(S(N)(=O)=O)cc34)cc2)cn1 [Compound 36]
- drop off in the cell-based assay (WNT signaling [10]): 12 fold
- microsomal CLint at 1 µM (in vitro [4]): 125 µL/min/mg
- microsomal CLint at 1 µM (in vitro [5]): 220 µL/min/mg
- microsomal CLint at 1 µM (in vitro [6]): 47 µL/min/mg

Structure (SMILES): CNC(=O)c1ccc2c(N)ncc(-c3ccc4c(c3)CS(=O)(=O)N4)c2n1 [Compound 37]
- % of parent compd remaining after 45 min (aldehyde oxidase [3]): 100%
- IC50 (WNT signaling [11]): 9600 ± 2430 nM

Structure (SMILES): COC1CN(C(=O)c2ccc3cncc(-c4ccc(-c5cnn(CC(C)(C)O)c5)cc4)c3n2)C1 [Compound 38]
- % of parent compd remaining after 45 min (aldehyde oxidase [3]): 0%
- IC50 (WNT signaling [11]): 2.8 ± 0.7 nM

Structure (SMILES): COC1CN(C(=O)c2ccc3cncc(-c4ccc5c(cnn5CC(C)(C)O)c4)c3n2)C1 [Compound 39]
- % of parent compd remaining after 45 min (aldehyde oxidase [3]): 0%
- IC50 (WNT signaling [11]): 225 ± 76 nM

Structure (SMILES): COC1CN(C(=O)c2ccc3cncc(-c4ccc5nn(CC(C)(C)O)cc5c4)c3n2)C1 [Compound 40]
- % of parent compd remaining after 45 min (aldehyde oxidase [3]): 0%
- IC50 (WNT signaling [11]): 17.9 ± 5.5 nM

Structure (SMILES): COC1CN(C(=O)c2ccc3cncc(-c4ccc(-c5cnn(CC(C)(C)O)c5)cc4)c3c2)C1 [Compound 41]
- % of parent compd remaining after 45 min (aldehyde oxidase [3]): 0%
- IC50 (WNT signaling [11]): 13.2 ± 15.2 nM

Structure (SMILES): CC(C)(O)Cn1cc(-c2ccc(-c3cncc4ccc(C(N)=O)cc34)cc2)cn1 [Compound 42]
- % of parent compd remaining after 45 min (aldehyde oxidase [3]): 7%
- IC50 (WNT signaling [11]): 0.6 ± 0.2 nM

Structure (SMILES): COC1CN(C(=O)c2ccc3cncc(-c4ccc5c(cnn5CC(C)(C)O)c4)c3c2)C1 [Compound 43]
- % of parent compd remaining after 45 min (aldehyde oxidase [3]): 2%
- IC50 (WNT signaling [11]): 921 ± 148 nM

Structure (SMILES): COC1CN(C(=O)c2ccc3cncc(-c4ccc5nn(CC(C)(C)O)cc5c4)c3c2)C1 [Compound 44]
- % of parent compd remaining after 45 min (aldehyde oxidase [3]): 0%
- IC50 (WNT signaling [11]): 92.7 ± 41.1 nM

Structure (SMILES): CNC(=O)c1ccc2c(OC)ncc(-c3ccc4c(c3)CS(=O)(=O)N4)c2n1 [Compound 45]
- IC50 (WNT signaling [11]): > 30000 nM

Structure (SMILES): CNC(=O)c1ccc2c(N)ncc(-c3ccc4c(c3)CS(=O)(=O)N4C)c2n1 [Compound 48]
- Cl ([2]; Balb/C, in vivo): 213 mL/min/kg
- F ([2]; Balb/C, in vivo): 29%
- Vss ([2]; Balb/C, in vivo): 5.64 L/kg
- AO substrate (Enzyme assay) (aldehyde oxidase [3]): No
- IC50 (WNT signaling [11]): 9.3 ± 2.3 nM
- microsomal CLint (in vitro [4]): 94 µL/min/mg
- microsomal CLint (in vitro [5]): 24 µL/min/mg
- microsomal CLint (in vitro [6]): 18 µL/min/mg
- CLint scaled at 1 µM (aldehyde oxidase [8]): 15 mL/min/kg

- Caco-2 ER (Caco-2): 145
- Caco-2 PappA-B (Caco-2): 0.96 × 10^–6 cm/s
- Cl ([2]; Balb/C, in vivo): 58.5 mL/min/kg
- F ([2]; Balb/C, in vivo): <5%
- Vss ([2]; Balb/C, in vivo): 2.49 L/kg
- microsomal CLint at 1 µM (in vitro [4]): 36 µL/min/mg
- microsomal CLint (in vitro [5]): < 10 µL/min/mg
- microsomal CLint (in vitro [6]): < 10 µL/min/mg
- CLint scaled at 1 µM (aldehyde oxidase [8]): < 4.2 mL/min/kg
Structure (SMILES): Cn1cc(-c2ccc(-c3cnc(N)c4ccc(C(=O)N5CCNCC5)nc34)cc2)cn1 [Compound 49]

Structure (SMILES): Cn1cc(-c2ccc(-c3cnc(N)c4ccc(-c5nccn5C)nc34)cc2)cn1 [Compound 57]
- drop in CDK8 affinity (CDK8): 225 fold
